Where “and” joins values, the source holds several entries; their conditions need not be identical. Identical values can stand only once. Like-named read-outs stand apart in the source and are kept apart here.
Assays:
OxaD [1] = target: T1, OxaD (Penicillium oxalicum, UniProt A0A1B2TT15); conditions: for kred2: slow phase
Method: To remove oxygen from the enzyme sample, OxaD (or D63A) was degassed along with buffer solutions as previously described. The stopped-flow was incubated with an anaerobic solution of 0.6 μM glucose oxidase and 100 mM D-glucose in 100 mM sodium acetate, pH 5.0, overnight to remove any oxygen.[27] […] For all stopped-flow experiments, the concentrations listed are after mixing in the instrument. […] Absorbance changes between 200 and 800 nm were recorded. The decrease in absorbance at 446 nm was fit to eq 2 to obtain the observed rate constant of the fast phase (k1) and of the slow phase (k2). A446 is the absorbance at 446 nm, A is the amplitude of the phase, t is time, and C is the final absorbance at 446 nm. […] Oxygenated buffer was prepared by bubbling 30 cc/min (pressure regulated by a flowmeter) of 100% oxygen into the OxaD activity buffer on an ice bath for 1 h while stirring. The resulting oxygen solution has a concentration of 1.2 mM.[27] Oxidation of reduced OxaD or D63A was investigated at various concentrations of oxygen (100–600 μM) at room temperature. To obtain lower oxygen concentrations, the saturated oxygen solution was diluted with anaerobic buffer. Absorbance changes at 200–800 nm were recorded. Absorbance changes at 365 nm were fit to eq 4 to account for the absorbance increase and decrease. In eq 4, A365 is the absorbance values at 365 nm, A1 and A2 are the changes in absorbance related to a single phase, k1 is the rate of absorbance increase, and k2 is the rate of absorbance decrease. Absorbance increases at 446 nm were fit to eq 5, where A446 is the absorbance values at 446 nm, kobs is the observed rate and AΔ is the change in absorbance. In both eq 4 and eq 5, A0 is the initial absorbance and t is time. The bimolecular rate constant was determined using a linear equation. All data fitting was carried out with KaleidaGraph. Spectral deconvolution was carried out using a three-step model that accounted for the reduced enzyme–substrate complex, the enzyme-intermediate complex, and the final oxidized enzyme.

OxaD D63A [2] = target: T2, OxaD D63A (Penicillium oxalicum, UniProt A0A1B2TT15, D63A); experiment: Anaerobic stopped-flow, reductive-half reaction, D63A mutant; assay type: biochemical, Penicillium oxalicum F30; conditions: for kred2: slow phase
OxaD D63A [3] = target: T2, OxaD D63A
Method: (§2) OxaD D63A (D63A from hereon) was expressed and purified using the same procedures as those described for OxaD.
(§3) All oxygen consumption assays were performed using an Oxygraph+ system from Hansatech Instruments (Norfolk, U.K.). Assays were performed in 25 mM HEPES/Na^+ buffer, pH 7.6, 50 mM NaCl, 1% DMSO (750 μL total volume). […] Equation 1 was used to determine the turnover number (kcat) and Michaelis–Menten constant (KM).

[4] = set-up: method as in ref 18−20; conditions: ref 18−20; cited from earlier work
oxidized OxaD = target: T3, oxidized OxaD (Penicillium oxalicum, UniProt A0A1B2TT15); assay type: binding, Penicillium oxalicum F30; conditions: 15 μM oxidized OxaD, roquefortine C 0–40 μM, pH 7.6; read-out: apparent KD
T3 sequence (A0A1B2TT15 1-467): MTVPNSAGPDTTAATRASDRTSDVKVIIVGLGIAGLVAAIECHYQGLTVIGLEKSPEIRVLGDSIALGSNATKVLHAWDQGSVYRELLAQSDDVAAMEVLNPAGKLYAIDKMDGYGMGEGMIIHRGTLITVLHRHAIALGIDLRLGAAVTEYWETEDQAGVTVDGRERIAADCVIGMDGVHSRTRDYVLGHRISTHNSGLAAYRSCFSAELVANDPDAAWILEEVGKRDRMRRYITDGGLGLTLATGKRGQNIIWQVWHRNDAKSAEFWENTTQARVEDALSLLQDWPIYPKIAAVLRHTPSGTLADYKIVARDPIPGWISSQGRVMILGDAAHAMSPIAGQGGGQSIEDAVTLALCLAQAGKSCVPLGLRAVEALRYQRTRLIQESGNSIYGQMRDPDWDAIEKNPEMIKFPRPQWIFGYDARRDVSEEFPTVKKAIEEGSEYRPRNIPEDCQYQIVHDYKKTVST
Method: (§1) These methods were adapted from Abdelwahab et al., 2016.[29] […] The instrument was blanked with each concentration of roquefortine C prior to recording the enzyme–substrate complex spectra. Each solution was 200 μL and contained 15 μM of enzyme, and various roquefortine C concentrations (0–40 μM). Prior to recording the spectra, the enzyme was incubated on ice for 5 min with the substrate and the spectra were measured immediately following the incubation.

oxidized D63A = target: T4, oxidized D63A (Penicillium oxalicum, UniProt A0A1B2TT15, D63A); assay type: binding, Penicillium oxalicum F30; conditions: 15 μM oxidized D63A, roquefortine C 0–40 μM, pH 7.6; read-out: apparent KD
T4 sequence (A0A1B2TT15 1-467 D63A): T3 sequence (A0A1B2TT15 1-467)
Method: as §1

OxaD [5] = target: T1, OxaD; experiment: Oxygen consumption assay, steady-state kinetics; conditions: OxaD 1 μM; pH 7.6, 1% DMSO; roquefortine C fixed 100 μM for cosubstrates; NADPH fixed 500 μM when roquefortine C varied
Method: All oxygen consumption assays were performed using an Oxygraph+ system from Hansatech Instruments (Norfolk, U.K.). Assays were performed in 25 mM HEPES/Na^+ buffer, pH 7.6, 50 mM NaCl, 1% DMSO (750 μL total volume).

OxaD [6] = target: T1, OxaD; set-up: method as in PMID 27505044; conditions: previous characterization; cited from earlier work
OxaD D63A [7] = conditions: D63A vs OxaD
Method: as §2, §3

[8] = test system: cytochrome P450s in the liver and kidneys; set-up: method as in PMID 16019806; conditions: likely through binding to the heme in the active site; cited from earlier work
mice = test system: mice; set-up: method as in ref 11−14; conditions: mice exposed to roquefortine C; ref 11−14; cited from earlier work
OxaD D63A [9] = experiment: Anaerobic stopped-flow, reductive-half reaction, D63A mutant; assay type: biochemical, Penicillium oxalicum F30; conditions: D63A vs OxaD
[10] = test system: human breast and leukemia cancer cell lines; set-up: method as in ref 18−20; conditions: ref 18−20; cited from earlier work
[11] = OxaD 10 μM, 10 μM roquefortine C, fast phase, apparent
[12] = OxaD 10 μM, 10 μM roquefortine C
[13] = D63A 10 μM, 10 μM roquefortine C, fast phase
[14] = D63A 10 μM, 10 μM roquefortine C

With NADH the kred1 (OxaD [1]; [11]) was 43 ± 0.30 s^–1, the kred2 (OxaD [1]; [12]) was 0.34 ± 0.01 s^–1 and the “increase in KD(app) relative to NADPH” value (OxaD [1]; OxaD, NADH vs NADPH) was ~3 fold.

For (R)-[4-^2H]-NADPH, the kred1 (OxaD D63A [2]; [13]) was 2.4 ± 0.08 s^–1, the kred2 (OxaD D63A [2]; [14]) was 0.17 ± 0.01 s^–1 and the “^Dkred (kinetic isotope effect on rate of reduction)” value (OxaD D63A [2]; D63A, 4 mM synthesized NADPH vs 4 mM (R)-[4-^2H]-NADPH) was “^Dkred = 3.60 ± 0.13”. The “^Dkcat (kinetic isotope effect on kcat)” value (OxaD D63A [3]; D63A, synthesized NADPH vs (R)-[4-^2H]-NADPH) was “^Dkcat = 3.40 ± 0.38”, the kred1 (OxaD [1]; [11]) was 9.1 ± 0.10 s^–1 and the kred2 (OxaD [1]; [12]) was 0.24 ± 0.05 s^–1.

In the case of C=CC(C)(C)[C@]12C=C(O)C(=O)N3/C(=C/c4cnc[nH]4)C(=O)N[C@@]31N(O)c1ccccc12 [glandicoline B], the antibacterial effects [4] is listed as “antibacterial effects”.

In the case of C=CC(C)(C)[C@@]12C[C@H]3C(=O)N/C(=C/c4c[nH]cn4)C(=O)N3[C@@H]1Nc1ccccc12 [Roquefortine C], the Kd (oxidized OxaD) is reported as 6.9 µM and ~6.9 µM, the Kd (oxidized D63A) is reported as 6.4 ± 0.2 µM and the Km (OxaD [5]) is reported as 3 ± 1 µM. The kcat (OxaD [5]) was 0.93 ± 0.07 s^–1, the Km (OxaD [6]) was 0.071 µM and the kcat (OxaD [6]) was 0.017 s^–1. For the same molecule, the “enhancement of kred in the presence of substrate” value (OxaD D63A [2]; D63A, with vs without substrate) was ~50 fold, the Km (OxaD D63A [3]; pH 7.6) was 3.5 ± 0.9 µM and the “increase in kcat compared to OxaD” value (OxaD D63A [7]; oxygen consumption) was ~2 fold. The “effect on cytochrome P450s” value [8] was “deactivate cytochrome P450s in the liver and kidneys”, the “toxic effects in mice” value (mice) was “cytotoxic, immunotoxic, neurotoxic, and lung inflammatory effects” and the “enhancement of kred by presence of roquefortine C” value (OxaD [1]; OxaD, with vs without roquefortine C) was 120 fold.

Molecule NADPH [Synthesized NADPH] has a kred1 (OxaD D63A [2]; [13]) of 8.6 ± 0.14 s^–1, a kred2 (OxaD D63A [2]; [14]) of 0.20 ± 0.04 s^–1 and a kred1 (OxaD [1]; [11]) of 45 ± 0.70 s^–1. It also gave a kred2 (OxaD [1]; [12]) of 0.32 ± 0.02 s^–1.

In the case of NADPH, the kred1 (OxaD D63A [2]; [13]) is reported as 9.0 ± 0.20 s^–1, the kred2 (OxaD D63A [2]; [14]) is reported as 0.18 ± 0.01 s^–1 and the “kred1/KD(app)” value (OxaD D63A [2]; D63A, 10 μM roquefortine C) is reported as 7.2 × 10^3 ± 1.4 × 10^3 M^–1·s^–1. For the same molecule, the kred1 (OxaD D63A [2]; D63A, No roquefortine C) was 0.17 ± 0.01 s^–1, the “decrease in kred compared to OxaD” value (OxaD D63A [9]) was ~5 fold and the “increase in KM compared to OxaD” value (OxaD D63A [7]) was 25 fold. The kred1 (OxaD [1]; [11]) was 48 ± 0.80 s^–1, the kred2 (OxaD [1]; [12]) was 0.39 ± 0.01 s^–1 and the “kred1/KD(app)” value (OxaD [1]; OxaD, 10 μM roquefortine C) was 9.0 × 10^4 ± 2.0 × 10^3 M^–1·s^–1. It also gave a kred1 (OxaD [1]; OxaD, No roquefortine C) of 0.40 ± 0.10 s^–1.

In the case of Melegranin, the anticancer properties [10] is listed as “anticancer properties”.

For C=CC(C)(C)[C@]12C=C(OC)C(=O)N3/C(=C/c4c[nH]cn4)C(=O)N[C@@]31N(OC)c1ccccc12 [oxaline], the antibacterial effects [4] is given as “antibacterial effects” and the anticancer properties [10] is given as “anticancer properties”.

Source: paper PMC11154958, “Mechanism of Nitrone Formation by a Flavin-Dependent Monooxygenase” (Biochemistry, 2024)
